# How the values were obtained:
# Experiment in all cases: relative viability (nuclei count vs DMSO), 5 days (fraction); higher = more cells survive
# LCLC-103H = system: LCLC-103H
# In short: (§1)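 One day after seeding in 1536-well plates, lung cancer cell lines were dosed by pin tool. Dosing was either single-drug or a fixed anchor-drug dose plus five library-drug doses (not always all listed) in √10 steps. After 5 days, nuclei were stained in one fix-and-stain step and counted on 4× images, and relative viability is the nuclei count of treated wells over that of vehicle wells, given as the median of duplicate plates.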
# NCI-H2405 = system: NCI-H2405
# In short: as §1
# 201T = system: 201T
# In short: as §1
# HCC-78 = system: HCC-78
# In short: as §1
# NCI-H1793 = system: NCI-H1793
# In short: as §1
# UMC-11 = system: UMC-11
# In short: as §1
# EPLC-272H = system: EPLC-272H
# In short: as §1
# NCI-H661 = system: NCI-H661
# In short: as §1
# NCI-H2023 = system: NCI-H2023
# In short: as §1
# NCI-H23 = system: NCI-H23
# In short: as §1
# NCI-H1395 = system: NCI-H1395
# In short: as §1
# RERF-LC-KJ = system: RERF-LC-KJ
# In short: as §1
# LOU-NH91 = system: LOU-NH91
# In short: as §1
# EMC-BAC-2 = system: EMC-BAC-2
# In short: as §1
# NCI-H1437 = system: NCI-H1437
# In short: as §1
# NCI-H647 = system: NCI-H647
# In short: as §1
# NCI-H1915 = system: NCI-H1915
# In short: as §1
# NCI-H2342 = system: NCI-H2342
# In short: as §1
# SK-LU-1 = system: SK-LU-1
# In short: as §1
# NCI-H1651 = system: NCI-H1651
# In short: as §1
# NCI-H1975 = system: NCI-H1975
# In short: as §1
# ABC-1 = system: ABC-1
# In short: as §1
structure (smiles),measurement,setting,value
CCCCCCCCCCCC1=C(O)C(=O)C=C(O)C1=O [Embelin] + Cc1cc(Nc2cc(N3CCN(C)CC3)nc(Sc3ccc(NC(=O)C4CC4)cc3)n2)n[nH]1 [Tozasertib] (partner 0.1 µM),relative viability,LCLC-103H; first compound 0.08 µM,0.549
same,relative viability,LCLC-103H; first compound 0.8 µM,0.557
same,relative viability,LCLC-103H; first compound 2.53 µM,0.508
same,relative viability,LCLC-103H; first compound 8 µM,0.501
same,relative viability,NCI-H2405; first compound 0.08 µM,0.816
same,relative viability,NCI-H2405; first compound 0.8 µM,0.798
same,relative viability,NCI-H2405; first compound 2.53 µM,0.847
same,relative viability,NCI-H2405; first compound 8 µM,0.826
same,relative viability,201T; first compound 0.08 µM,0.934
same,relative viability,201T; first compound 0.8 µM,0.963
same,relative viability,201T; first compound 2.53 µM,0.94
same,relative viability,201T; first compound 8 µM,1.06
same,relative viability,HCC-78; first compound 0.08 µM,0.519
same,relative viability,HCC-78; first compound 0.8 µM,0.511
same,relative viability,HCC-78; first compound 2.53 µM,0.697
same,relative viability,HCC-78; first compound 8 µM,0.437
same,relative viability,NCI-H1793; first compound 0.08 µM,0.399
same,relative viability,NCI-H1793; first compound 0.8 µM,0.44
same,relative viability,NCI-H1793; first compound 2.53 µM,0.4
same,relative viability,NCI-H1793; first compound 8 µM,0.327
same,relative viability,UMC-11; first compound 0.08 µM,0.211
same,relative viability,UMC-11; first compound 0.8 µM,0.199
same,relative viability,UMC-11; first compound 2.53 µM,0.184
same,relative viability,UMC-11; first compound 8 µM,0.192
same,relative viability,EPLC-272H; first compound 0.08 µM,0.213
same,relative viability,EPLC-272H; first compound 0.8 µM,0.182
same,relative viability,EPLC-272H; first compound 2.53 µM,0.277
same,relative viability,EPLC-272H; first compound 8 µM,0.22
same,relative viability,NCI-H661; first compound 0.08 µM,0.366
same,relative viability,NCI-H661; first compound 0.8 µM,0.34
same,relative viability,NCI-H661; first compound 2.53 µM,0.318
same,relative viability,NCI-H661; first compound 8 µM,0.337
same,relative viability,NCI-H2023; first compound 0.08 µM,0.412
same,relative viability,NCI-H2023; first compound 0.8 µM,0.406
same,relative viability,NCI-H2023; first compound 2.53 µM,0.369
same,relative viability,NCI-H2023; first compound 8 µM,0.302
same,relative viability,NCI-H23; first compound 0.08 µM,0.47
same,relative viability,NCI-H23; first compound 0.8 µM,0.462
same,relative viability,NCI-H23; first compound 2.53 µM,0.36
same,relative viability,NCI-H23; first compound 8 µM,0.34
same,relative viability,NCI-H1395; first compound 0.08 µM,0.766
same,relative viability,NCI-H1395; first compound 0.8 µM,0.725
same,relative viability,NCI-H1395; first compound 2.53 µM,0.832
same,relative viability,NCI-H1395; first compound 8 µM,0.722
same,relative viability,RERF-LC-KJ; first compound 0.08 µM,0.567
same,relative viability,RERF-LC-KJ; first compound 0.8 µM,0.532
same,relative viability,RERF-LC-KJ; first compound 2.53 µM,0.564
same,relative viability,RERF-LC-KJ; first compound 8 µM,0.368
same,relative viability,LOU-NH91; first compound 0.08 µM,0.751
same,relative viability,LOU-NH91; first compound 0.8 µM,0.827
same,relative viability,LOU-NH91; first compound 2.53 µM,0.749
same,relative viability,LOU-NH91; first compound 8 µM,0.808
same,relative viability,EMC-BAC-2; first compound 0.08 µM,0.27
same,relative viability,EMC-BAC-2; first compound 0.8 µM,0.318
same,relative viability,EMC-BAC-2; first compound 2.53 µM,0.269
same,relative viability,EMC-BAC-2; first compound 8 µM,0.267
same,relative viability,NCI-H1437; first compound 0.08 µM,0.41
same,relative viability,NCI-H1437; first compound 0.8 µM,0.417
same,relative viability,NCI-H1437; first compound 2.53 µM,0.457
same,relative viability,NCI-H1437; first compound 8 µM,0.448
same,relative viability,NCI-H647; first compound 0.08 µM,0.361
same,relative viability,NCI-H647; first compound 0.8 µM,0.26
same,relative viability,NCI-H647; first compound 2.53 µM,0.288
same,relative viability,NCI-H647; first compound 8 µM,0.245
same,relative viability,NCI-H1915; first compound 0.08 µM,0.463
same,relative viability,NCI-H1915; first compound 0.8 µM,0.448
same,relative viability,NCI-H1915; first compound 2.53 µM,0.458
same,relative viability,NCI-H1915; first compound 8 µM,0.49
same,relative viability,NCI-H2342; first compound 0.08 µM,0.6
same,relative viability,NCI-H2342; first compound 0.8 µM,0.641
same,relative viability,NCI-H2342; first compound 2.53 µM,0.527
same,relative viability,NCI-H2342; first compound 8 µM,0.479
same,relative viability,SK-LU-1; first compound 0.08 µM,0.377
same,relative viability,SK-LU-1; first compound 0.8 µM,0.369
same,relative viability,SK-LU-1; first compound 2.53 µM,0.379
same,relative viability,SK-LU-1; first compound 8 µM,0.323
same,relative viability,NCI-H1651; first compound 0.08 µM,0.677
same,relative viability,NCI-H1651; first compound 0.8 µM,0.657
same,relative viability,NCI-H1651; first compound 2.53 µM,0.723
same,relative viability,NCI-H1651; first compound 8 µM,0.807
same,relative viability,NCI-H1975; first compound 0.08 µM,0.901
same,relative viability,NCI-H1975; first compound 0.8 µM,0.745
same,relative viability,NCI-H1975; first compound 2.53 µM,0.683
same,relative viability,NCI-H1975; first compound 8 µM,0.839
same,relative viability,ABC-1; first compound 0.08 µM,0.189
same,relative viability,ABC-1; first compound 0.8 µM,0.166
same,relative viability,ABC-1; first compound 2.53 µM,0.181
same,relative viability,ABC-1; first compound 8 µM,0.148

# From the supplement of paper PMC10307832
